Data: patent publication US11760766B2, “Ionic liquids containing quaternary ammonium and phosphonium cations, and their use as environmentally friendly lubricant additives” (UT-Battelle, LLC, priority 2020, dated 2023)
Where two headings read alike, the source gives them in different places.

Experiments:
[1] = Solubility of ILs in base oils, by centrifuging the oil-additive blends; conditions: centrifuged 13,000 rpm 5 min
Ceriodaphnia dubia = conditions: in vivo

Row | Compound | Survival rate of Daphnia (Ceriodaphnia dubia) | Total reproductive output (number of neonates) in surviving Daphnia (Ceriodaphnia dubia) | other results
1 | CCCC[P+](CC)(CCCC)CCCC [[P4442][DEP], Tributyl(ethyl)phosphonium diethyl phosphate] | – | – | IL's solubility in base oil ([1]; OSP-32): >5% wt. %; IL's solubility in base oil ([1]; PAG (50-HB-170)): >5% wt. %; Number of surviving Daphnia (Ceriodaphnia dubia; Ceriodaphnia dubia): 10; Survival rate of Daphnia (Ceriodaphnia dubia; Ceriodaphnia dubia): > 70%; Mortality / survival of Daphnia, in words (Ceriodaphnia dubia): did not cause any mortality
2 | tributyl(methyl)ammonium dibutyl phosphate [[N4441][DBP]] | – | – | Mortality / survival of Daphnia, in words (Ceriodaphnia dubia): did not cause any mortality
3 | CCCCOP(=O)([O-])OCCCC.CCCC[N+](C)(CCCC)CCCC [[N4441] [DBP]] | > 70% | – | –
4 | CCCCCCN(CCCCCC)CCCCCC.CCCCOP(=O)(O)OCCCC [[N666H][DBP]] | 10% | – | –
5 | CCCCOP(=O)(O)OCCCC.CN1CCOCC1 [[NMM][DBP]] | > 70% | – | –
6 | Trioctylammonium di(2-ethylhexyl)phosphate [[N888H][DEHP], reference compound] | – | 0 | –
7 | CCCCOP(=O)(O)OCCCC.CN1CCCCC1 [[NMPPR][DBP]] | > 70% | – | –
8 | CCCCOP(=O)(O)OCCCC.CN1CCCCC1 [[NMPPR] [DBP]] | 70-90% | – | –
9 | Tetraoctylammonium octadecanoate [[N8888][C17H35COO]] | – | 0 | Mortality / survival of Daphnia, in words (Ceriodaphnia dubia): No Daphnia survived for three days
10 | CCCCOP(=O)(O)OCCCC.CN1CCOCC1 [[NMM] [DBP]] | 70-90% | – | –
11 | CCCCCCCCN(CCCCCCCC)CCCCCCCC.CCCCOP(=O)(O)OCCCC [[N888H][DBP]] | 0% | 0 | –
12 | Tetraoctylphosphonium bis(2-ethylhexyl) phosphate [[P8888][DEHP], reference compound] | – | 0 | Time of exposure after which all Daphnia were killed (Ceriodaphnia dubia): one
